Values quoted from earlier work in patent US20120259154A1, “In Vivo Immunomagnetic Hyperthermia Platform for Any Cell or Virus Having a Target Surface Receptor” (IVDiagnostics, Inc., priority 2011, published 2012).

Conditions: following intravenous administration

t1/2 (clearance from the blood): 3.5 min
Substance: folate-FITC
